Where two headings read alike, the source gives them in different places.
Key:
HT22 cells [1] = assay: In vitro neuroprotective activity against glutamate-induced cell death (MTS cell viability); assay type: cell-based, mouse; details: HT22 cells; for EC50: 24 hrs, MTS, concentration producing 50% protection, read-out: Protection PC50
Protocol: (§1) The HT22 neuronal cell line is a subclone of HT4, derived from the mouse hippocampus (Morimoto and Koshland, 1990). […] HT22 cells were used. The cells were grown in Dulbecco's Modified Eagle's medium (DMEM/high glucose) supplemented with 10% fetal bovine serum (Hyclone) and 5 mL Antibiotic-Antimycotic (Amphotericin B, Penicillin, and Streptomycin; Invitrogen) at 37° C. in 5% CO2.
(§2) Cell viability was assessed by the ability of the viable cells to metabolize 3-(4,5-dimethylthiazol-2-yl)-5-(3-carboxymethoxyphenyl)-2(4-sulfophenyl)2-H-tetrazolium, inner salt (MTS), as described previously (Cory et al., 1991). The metabolism of tetrazolium salts is often used to measure cellular proliferation, but in the system used here, it has been previously shown to correlate well with cell viability as determined by trypan blue exclusion and colony-forming assays (Davis and Maher, 1994). Briefly, HT-22 cells were seeded onto 96-well plates at 5.0×10^3 cells per well in 75 μL of medium and maintained at 37° C. in 5% CO2 overnight prior to the initiation of experimental treatments. For glutamate toxicity testing, cells were subsequently treated with 25 μL of medium containing glutamate (monosodium glutamate, Sigma, 1 M stock concentration in media, to achieve a final concentration of 10 mM) plus inhibitors (stock in DMSO) and maintained at 37° C. in 5% CO2. For t-BuOOH toxicity testing, cells were subsequently treated with 25 μL of medium containing t-BuOOH (Sigma, 10 mM stock concentration, to achieve a final concentration of 50 μM) plus inhibitors (stock in DMSO) and maintained at 37° C. in 5% CO2 for 3 hours, after which the media was removed, cells washed gently with HBSS, the media replaced with standard culture media, and the cells returned to incubation at 37° C. in 5% CO2. For both glutamate and t-BuOOH treatments, 10 μl of MTS solution was added to each well 24 hrs after initial treatment, and the cells were maintained in growth medium for 2 h at 37° C. Absorbance at 490 nm was subsequently measured by a SpectraMax 190 plate reader (Molecular Devices). The growth medium without cells in the presence of MTS solution was used as solution background and untreated cells were considered the controls. Cell viability was calculated as a percentage compared with untreated controls. EC50 determinations were based on 12-point titrations using GraphPad Prism, and each experiment was repeated at least four times. Morphology of HT22 cells following treatments was determined by phase-contrast microscopy. Digital images of cells grown on cell culture plates were captured at 10× magnification.
The neuroprotective properties of VK and its derivatives were estimated through their protective effects against cell death in mouse neuronal HT22 cells induced by exposure to high levels of glutamate, which recapitulates a hallmark of the extracellular environment found in several neurodegenerative diseases and CNS injuries and is a well established model of neuronal oxidative stress. This investigation began by comparing the relative abilities of the two predominant naturally occurring forms of VK, VK1 and VK2, to prevent oxidative cell death. […] Several 1,4-naphthoquinones with various substitutions at the 2′ and 3′ positions were tested to determine the minimum structural requirement of the system and what the optimum scaffold for future developmental efforts and biological validation would be (FIG. 1B and Table 1). […] Substitution by a single methyl group at the 2′ position (VK3) improves the compound's ability to protect against cell death. Various other simple substituents at the 2′ and 3′ positions give the naphthoquinone structure the ability to prevent oxidative cell death at nanomolar concentrations (Table 1 and FIG. 16).

HT22 cells [2] = assay: In vitro neurotoxicity without glutamate (MTS cell viability); assay type: cell-based, mouse; details: for Safety Index TC50/PC50: HT22 cells
Protocol: as §1, §2

Drp1 = assay: Western blot, phosphorylation of Drp1 (Ser637); assay type: cell-based, mouse; details: HT22, 10 mM glutamate 16 hrs
Protocol: HT-22 cells were cultured and treated as described above for the qRT-PCR experiments. After 16 hrs, the media was collected and the cells harvested by trypsanization. After centrifugation, pelleted cells were washed with cold HBSS Ca^2+/Mg^2+ Free, followed by lysis with a low salt lysis buffer (50 mM Tris-HCl, pH 7.4, 150 mM NaCl, 10% glycerol, 0.5 Triton X-100, 1× protease and phosphatase inhibitor cocktail) for 30 min, followed by a 15-s sonication pulse at 30 W. For Western blot analysis, the cell lysates were denatured with LDS loading buffer (Invitrogen) and run on Nupage 4-12% Tris-glysine gradient gels (Invitrogen) after centrifugation. Phosphorylated Drp1 (Ser637) (Cell Signaling) and total Drp1 (C5) (Santa Cruz), PGAM5 (K16) (Santa Cruz Biotechnology), Actin (Sigma-Aldritch) and alpha-Tubulin (Santa Cruz Biotechnology) were assessed with primary antibody, followed by rabbit, mouse, or goat IgG-HRP secondary antibody. The blot was developed using Pierce Thermo Dura-ECL reagent (Thermo-Fisher) and visualized using an ImageQuant LAS 4000 (GE). Digital images of membranes were quantified by computer-assisted densitometry using Image J 1.42q (National Institutes of Health, MD).

[3] = Mouse neurotoxicity (rotorod); assay type: in vivo; details: mice, 100 mg/kg i.p.
Protocol: Using a 96-well plate, one zebrafish larva (7 dpf) was placed in each well in 100 μL of tank water. 100 μL of each compound was then added to each well for 12 animals (one row) for a final volume of 200 μL. One row of zebrafish larvae was used as DMSO only controls. […] Toxicity was also measured in the mouse model by the NIH Anticonvulsant Screening Program at the National Institute of Neurological Disorders and Stroke (Stables and Kupferberg, 1997), according to the established NIH experimental procedures. Compounds were delivered into mice by intraperitoneal (i.p.) injection at a dose of 100 mg/kg in sterile 5% DMSO, 95% Neobee (Josey et al., 2013). Acute toxicity was assessed by monitoring the animals for impaired neuromuscular function by placing treated mice on a rod rotating at 6 rpm. […].

[4] = Mus musculus, HT-22, 10 mM glutamate
[5] = HT22 cells without glutamate, 24 hrs, MTS, concentration producing 50% toxicity, read-out: Toxicity TC50

Row | Compound | EC50 (HT22 cells [1]; [4]) | Safety Index TC50/PC50 (HT22 cells [2]) | CC50 (HT22 cells [2]; [5]) | phosphorylation of Drp1 at Ser 637 (Drp1; 250 and 125 nM) | animals displaying toxic effects/animals tested, 0.25 hr [3] | animals displaying toxic effects/animals tested, 0.5 hr [3] | animals displaying toxic effects/animals tested, 1.0 hr [3] | animals displaying toxic effects/animals tested, 2.0 hr [3] | animals displaying toxic effects/animals tested, 4.0 hr [3] | fold increase in PC50 potency over VK2 (HT22 cells [1]; 10 mM glutamate) | fold increase in PC50 potency over compound 2j (HT22 cells [1]; 10 mM glutamate) | EC50 (HT22 cells [1]; 10 mM glutamate) | protection from oxidative cell death (HT22 cells [1]; glutamate) | CC50 (HT22 cells [2]) | cellular toxicity (HT22 cells [2]) | phosphorylation of Drp1 at Ser 637 (Drp1; 250 nM) | phosphorylation of Drp1 at Ser 637 (Drp1; 500 nM)
1 | O=C1C=C(NCc2ccccc2)C(=O)c2ccccc21 [Compound 2j, 2-(benzylamino)naphthalene-1,4-dione] | 0.088 µM | 1,136 | > 100 µM | the phosphorylation state is maintained | 0/12 | 0/12 | 0/12 | 0/12 | 0/12 |  |  |  |  |  |  |  | 
2 | O=C1C=C(NCc2cccc(Cl)c2)C(=O)c2ccccc21 [Compound 2q, 2-((3-chlorobenzyl)amino)naphthalene-1,4-dione] | 0.031 µM | 3,226 | > 100 µM | the phosphorylation state is maintained | 0/12 | 0/12 | 0/12 | 0/12 | 0/12 | more than 10 fold | ~3 fold |  |  |  |  |  | 
3 | CC1=CC(=O)c2ccccc2C1=O [VK3, menadione, reference compound] |  | 24 | 19 µM |  |  |  |  |  |  |  |  | 0.797 µM |  |  |  |  | 
4 | C#CCNC1=CC(=O)c2ccccc2C1=O [Compound 2h, 2-(prop-2-yn-1-ylamino)naphthalene-1,4-dione] | 0.12 µM | 442 | 53 µM |  | 0/12 | 1/12 | 0/12 | 0/12 | 0/12 |  |  |  |  |  |  |  | 
5 | menaquinones [VK2, reference compound] |  | 231 |  |  |  |  |  |  |  |  |  | 0.432 µM | rescued HT22 cells from oxidative cell death | > 100 µM | neither exhibited any signs of cellular toxicity | less effective | the phosphorylation state is maintained
